In ChEMBL document CHEMBL5634193, “Discovery of CVN293, a Brain Permeable KCNK13 (THIK-1) Inhibitor Suitable for Clinical Assessment” (ACS Med Chem Lett, 2024):
Converted amounts (≈) assume the structure as drawn.

Key:
[1] = biological target: T1, Potassium channel subfamily K member 13 (Homo sapiens, UniProt Q9HB14); assay: Inhibition of human KCNK13 transfected in HEK293 cells; format: cell-based
T1 sequence (Q9HB14 whole entry): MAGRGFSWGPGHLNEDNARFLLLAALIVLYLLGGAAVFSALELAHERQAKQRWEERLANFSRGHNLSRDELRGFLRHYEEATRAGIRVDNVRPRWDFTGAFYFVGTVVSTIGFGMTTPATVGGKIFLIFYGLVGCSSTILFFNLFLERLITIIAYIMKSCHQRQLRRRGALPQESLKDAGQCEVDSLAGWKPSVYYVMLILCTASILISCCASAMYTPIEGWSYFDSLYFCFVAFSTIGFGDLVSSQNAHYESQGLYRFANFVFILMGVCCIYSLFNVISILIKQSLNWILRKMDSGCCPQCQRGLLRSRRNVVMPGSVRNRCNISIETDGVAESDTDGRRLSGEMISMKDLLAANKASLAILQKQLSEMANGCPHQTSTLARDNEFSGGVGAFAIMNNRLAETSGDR

[2] = Metabolic stability in human liver microsomes assessed as intrinsic clearance; format: ADME, Microsome; details: read-out: CLH
[3] = Metabolic stability in rat liver microsomes assessed as intrinsic clearance; format: ADME, Microsome; details: read-out: CLH
[4] = Metabolic stability in mouse liver microsomes assessed as intrinsic clearance; format: ADME, Microsome; details: read-out: CLH
[5] = Protein binding in mouse plasma assessed as unbound fraction by equilibrium dialysis; format: ADME, cell-free
[6] = Protein binding in mouse brain assessed as unbound fraction by equilibrium dialysis; format: ADME, tissue-based
[7] = Kinetic aqueous solubility of compound at pH 7.4; format: physicochemical; details: buffer, read-out: Kinetic_solubility
[8] = Unbound drug concentration in C57BL/6 mouse plasma at 10 mg/kg, po measured after 4 hrs by LC-MS/MS analysis; format: ADME, organism-based; details: in vivo
[9] = Unbound drug concentration in C57BL/6 mouse brain at 10 mg/kg, po measured after 4 hrs by LC-MS/MS analysis; format: ADME, organism-based; details: in vivo
[10] = Ratio of drug concentration in brain to plasma C57BL/6 mouse at 10 mg/kg, po measured after 4 hrs by LC-MS/MS analysis; format: ADME, organism-based; details: brain and plasma, read-out: BPR
[11] = Ratio of unbound drug concentration in brain to plasma C57BL/6 mouse at 10 mg/kg, po measured after 4 hrs by LC-MS/MS analysis; format: ADME, organism-based; details: brain and plasma, read-out: K(p,uu,brain)
[12] = biological target: T2, Potassium channel subfamily K member 13 (Mus musculus, UniProt Q8R1P5); assay: Inhibition of mouse KCNK13 transfected in HEK293 cells; format: cell-based
T2 sequence (Q8R1P5 whole entry): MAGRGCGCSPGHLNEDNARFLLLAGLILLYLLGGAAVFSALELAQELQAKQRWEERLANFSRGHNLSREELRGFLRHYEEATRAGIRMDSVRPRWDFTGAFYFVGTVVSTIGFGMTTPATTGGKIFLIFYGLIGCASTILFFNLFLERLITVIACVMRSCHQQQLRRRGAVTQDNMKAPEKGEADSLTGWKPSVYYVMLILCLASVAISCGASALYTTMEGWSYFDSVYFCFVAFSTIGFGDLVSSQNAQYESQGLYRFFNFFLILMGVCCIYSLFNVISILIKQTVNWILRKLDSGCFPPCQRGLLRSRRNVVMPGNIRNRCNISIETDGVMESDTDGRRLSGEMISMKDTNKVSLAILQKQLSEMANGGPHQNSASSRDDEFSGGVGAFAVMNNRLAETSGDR

SMILES | IC50 [1] [µM] | microsomal CLint [2] [µL/min/mg] | microsomal CLint [3] [µL/min/mg] | microsomal CLint [4] [µL/min/mg] | fraction unbound [5] | fraction unbound [6] | solubility kinetic [7] [µM] | Cp(f) [8] [nM] | Cp(f) [9] [nM] | Kp at 4 h [10] | Kp uu at 4 h [11] | IC50 [12] [µM]
Nc1nonc1-c1nc2cccc(F)c2n1Cc1ccnnc1 | 0.05 | 9.6 | 31.6 | 13.9 | 0.188 | 0.128 | 10.4 (≈ 3.24 µg/mL) | 9 | 18 | 0.68 | 1.9 | 
N#Cc1ccc(Cn2c(-c3nonc3N)nc3cccc(F)c32)nn1 | 0.05 | 9.6 | 40 | 37 | 0.071 | 0.064 | 8.4 (≈ 2.82 µg/mL) |  |  |  |  | 0.035
Nc1ncccc1-c1nc2ccccc2n1Cc1ccncc1 | > 22 |  |  |  |  |  |  |  |  |  |  | 
Nc1nonc1-c1nc2c(F)ccc(F)c2n1Cc1cccnn1 | 0.037 | 9.6 | 12.6 | 10.1 | 0.159 | 0.13 | 12.9 (≈ 4.25 µg/mL) | 793 | 630 | 0.96 | 0.8 | 0.042
Nc1nonc1-c1nc2cc(F)ccc2n1Cc1ccncc1 | 0.042 | 19 | 14 | 28 |  |  | < 0.3 |  |  |  |  | 
Nc1nonc1-c1nc2c(F)cccc2n1Cc1ccncc1 | 0.055 | 25 | 27 | 74 |  |  | < 0.3 |  |  |  |  | 
Nc1nonc1-c1nc2cccc(F)c2n1Cc1ccncc1 | 0.046 | 14 | 22 | 66 |  |  | 3.7 (≈ 1.15 µg/mL) |  |  |  |  | 
Nc1nonc1-c1nc2cccc(F)c2n1Cc1cncnc1 | 0.049 | 10 | 24 | 18 | 0.129 | 0.057 | 6.5 (≈ 2.02 µg/mL) |  |  |  |  | 0.026
c1ccc2c(c1)nc(-c1cocn1)n2Cc1ccncc1 | 2.94 |  |  |  |  |  |  |  |  |  |  | 
c1ccc2c(c1)nc(-c1ncc[nH]1)n2Cc1ccncc1 | 3.43 |  |  |  |  |  |  |  |  |  |  | 
c1ccc2c(c1)nc(-c1ccn[nH]1)n2Cc1ccncc1 | 9.2 |  |  |  |  |  |  |  |  |  |  | 
Nc1nonc1-c1nc2cccc(F)c2n1Cc1ccc(C(F)(F)F)nn1 | 0.084 | 18.3 |  | 245 | 0.035 | 0.024 | 1.6 (≈ 0.607 µg/mL) |  |  |  |  | 0.074
CC(=O)Nc1nonc1-c1nc2ccccc2n1Cc1ccncc1 | > 22 | 34 | 45 |  |  |  |  |  |  |  |  | 
Nc1nonc1-c1nc2ccc(F)c(F)c2n1Cc1cccnn1 | 0.05 | < 9.6 | 15.4 | < 9.6 | 0.161 | 0.097 | 3.9 (≈ 1.28 µg/mL) | 80 | 56 | 1.17 | 0.7 | 
Nc1nonc1-c1nc2ccccc2n1Cc1ccncc1 |  | 24 | 56 |  |  |  |  |  |  |  |  | 
Nc1nonc1-c1nc2cccc(F)c2n1Cc1ccncn1 | 0.046 | 10 | 77 | 30 | 0.111 | 0.091 | 9.9 (≈ 3.08 µg/mL) |  |  |  |  | 
Cc1nonc1-c1nc2ccccc2n1Cc1ccncc1 | 0.089 | 45 | 47 |  |  |  |  |  |  |  |  | 
Nc1nonc1-c1nc2ccc(F)cc2n1Cc1ccncc1 | 0.034 | 37 | 10 | 58 |  |  | < 0.3 |  |  |  |  | 
Nc1nonc1-c1nc2cccc(F)c2n1Cc1cnccn1 | 0.047 | 21 | 68 | 50 | 0.138 | 0.077 | 10 (≈ 3.11 µg/mL) | 9 | 18 | 0.56 | 2.2 | 0.062
